In US12559474B2, “Triazine derivatives having virus replication inhibitory activity and pharmaceutical composition comprising the same” (priority 2021, dated 2026):
Where two headings read alike, the source gives them in different places.

Tests used:
SARS-CoV-2 = assay: microbe, parasite or virus in culture; type: cell-based; conditions: Severe acute respiratory syndrome coronavirus 2, VeroE6/TMPRSS2, 72 h, 50% SARS-CoV-2 infected cell death inhibitory concentration, VeroE6/TMPRSS2 cells, 3 days culture
SARS-CoV-2 3CL protease = SARS-CoV-2 3CL protease (Severe acute respiratory syndrome coronavirus 2, UniProt P0DTD1); assay: biochemical; conditions: 50% SARS-CoV-2 3CL protease inhibitory concentration, read-out: IC50

SMILES	EC50 (SARS-CoV-2; class symbols) [nM]	IC50 (SARS-CoV-2 3CL protease; given as class symbols) [nM]	IC50 (SARS-CoV-2 3CL protease; RapidFire MS) [nM]	EC50 (SARS-CoV-2; CellTiter-Glo 2.0) [nM]
CS(=O)(=O)c1ccc(Nc2nc(=O)n(Cc3ccc[nH]c3=O)c(=O)n2Cc2cc(F)c(F)c(F)c2)cc1 [Compound I-0033]	< 1000	1000 to 10000	5600	–
Cc1cncc(-n2c(=O)nc(Nc3ccc4nn(C)cc4c3)n(Cc3cc(F)c(F)cc3F)c2=O)c1 [II-0111]	–	–	78	1910
Cc1cncc(-n2c(=O)nc(Nc3cc4cn(CC(F)F)nc4cc3Cl)n(Cc3cc(F)c(F)cc3F)c2=O)c1 [II-0574]	–	–	9.2	200
COc1ccc(Nc2nc(=O)n(-c3cncc4ccccc34)c(=O)n2Cc2cc(F)c(F)c(F)c2)cc1 [Compound I-0136]	1000 to 10000	< 100	–	–
CC(=O)Nc1nc2cc(Cl)c(Nc3nc(=O)n(Cc4ncn(C)n4)c(=O)n3Cc3cc(Cl)c(F)cc3F)cc2s1 [II-0554]	1000 to 10000	< 100	–	–
Cc1cncc(-n2c(=O)nc(N(C)C3CCCCC3)n(Cc3cc(F)c(F)c(F)c3)c2=O)c1 [II-0372]	–	–	3400	6520
Cc1cncc(-n2c(=O)nc(Nc3cc4cn(C)nc4cc3Cl)n(Cc3ccc(F)cc3F)c2=O)c1 [II-0185]	< 1000	< 100	–	–
Cc1cncc(-n2c(=O)nc(Nc3cc4c(F)n(C)nc4cc3Cl)n(Cc3cc(F)c(F)c(F)c3)c2=O)c1 [II-0464]	< 1000	< 100	–	–
CCn1cc2cc(Nc3nc(=O)n(-c4cncc(Cl)c4)c(=O)n3Cc3cc(C#N)ccc3C)ccc2n1 [II-0034]	–	–	7.3	234
Cc1cncc(-n2c(=O)nc(Nc3cc4cn(C)nc4cc3Cl)n(Cc3ccc(F)c(C4CC4)c3)c2=O)c1 [II-0595]	–	–	530	8220
Cc1nc2cc(C)c(Nc3nc(=O)n(-c4cncc5ccccc45)c(=O)n3Cc3ccc(F)c(C#N)c3)cc2o1 [II-0192]	–	–	37	454
COc1ccc(Nc2nc(=O)n(Cc3cc4ccsc4[nH]c3=O)c(=O)n2Cc2cc(F)c(F)c(F)c2)cc1 [Compound I-0081]	< 1000	< 100	–	–
Cc1nc2cc(Cl)c(Nc3nc(=O)n(Cc4ccc[nH]c4=O)c(=O)n3Cc3cc(F)c(F)c(Cl)c3)cc2n1C [Compound I-0264]	1000 to 10000	< 100	–	–
COCCCn1cc2cc(Nc3nc(=O)n(Cc4ccc[nH]c4=O)c(=O)n3Cc3cc(F)c(F)c(F)c3)c(Cl)cc2n1 [Compound I-0248]	1000 to 10000	< 100	–	–
Cn1cnc(Cn2c(=O)nc(Nc3cc4sc(NCC(F)F)nc4cc3Cl)n(Cc3cc(F)c(F)c(Cl)c3)c2=O)n1 [II-0243]	1000 to 10000	< 100	–	–
COc1ccc(Nc2nc(=O)n(Cc3cc4sccc4[nH]c3=O)c(=O)n2Cc2cc(F)c(F)c(F)c2)cc1 [II-0342]	1000 to 10000	< 100	–	–
Cc1cncc(-n2c(=O)nc(Nc3cc4c(cc3C)OCC4)n(Cc3ccc(F)c(C#N)c3)c2=O)c1 [II-0172]	< 1000	< 100	–	–
Cc1cncc(-n2c(=O)nc(Nc3cc4cn(C)nc4cc3F)n(Cc3cc(C#N)ccc3C)c2=O)c1 [II-0115]	< 1000	< 100	–	–
Cc1cncc(-n2c(=O)nc(Nc3cc4sc(NC5CC5)nc4cc3Cl)n(Cc3ccc(F)c(C#N)c3)c2=O)c1 [II-0303]	< 1000	< 100	–	–
Cc1cncc(-n2c(=O)nc(Nc3ccc4nn(CC(F)(F)F)cc4c3)n(Cc3cc(C#N)ccc3Cl)c2=O)c1 [II-0001]	–	–	3.4	466
O=c1[nH]c2sccc2cc1Cn1c(=O)nc(Nc2cc3cn(CCO)nc3cc2Cl)n(Cc2cc(F)c(F)c(F)c2)c1=O [II-0031]	1000 to 10000	< 100	–	–
CC(C)(O)Cn1cc2cc(Nc3nc(=O)n(Cc4cc(Cl)c[nH]c4=O)c(=O)n3Cc3cc(F)c(F)c(F)c3)c(Cl)cc2n1 [Compound I-0455]	1000 to 10000	< 100	–	–
O=c1[nH]cccc1Cn1c(=O)nc(Nc2cc3c(cc2Cl)nc2n3CCOC2)n(Cc2cc(F)c(F)c(F)c2)c1=O [Compound I-0457]	–	–	7.2	5300
O=c1[nH]cccc1Cn1c(=O)nc(Nc2cccc3[nH]ccc23)n(Cc2cc(F)c(F)c(F)c2)c1=O [Compound I-0031]	1000 to 10000	100 to 1000	130	4060
Cc1cncc(-n2c(=O)nc(Nc3cc4cn(C)nc4cc3Cl)n(Cc3cc(C#N)c(F)cc3Cc3cccc(Cl)c3)c2=O)c1 [II-0434]	< 1000	< 100	–	–
CNc1nc2cc(Cl)c(Nc3nc(=O)n(-c4cncc(C)c4)c(=O)n3Cc3cc(C#N)c(F)cc3C)cc2o1 [II-0346]	< 1000	< 100	–	–
Cc1cncc(-n2c(=O)nc(Nc3cc4cn(C)nc4cc3F)n(Cc3cc(F)c(F)c(F)c3)c2=O)c1 [Compound I-0112]	< 1000	< 100	–	–
Cc1cncc(-n2c(=O)nc(Nc3ccc4nc(C)oc4c3)n(Cc3ccc(F)c(C#N)c3)c2=O)c1 [II-0105]	< 1000	< 100	–	–
